Key:
Assay type in all cases: functional
Details in all cases: read-out: GI
ACHN = assay: Growth inhibition of human ACHN cells at 10 uM incubated for 48 hrs by sulforhodamine B assay relative to control
HT-29 = assay: Growth inhibition of human HT-29 cells at 10 uM incubated for 48 hrs by sulforhodamine B assay relative to control
T47D = assay: Growth inhibition of human T47D cells at 10 uM incubated for 48 hrs by sulforhodamine B assay relative to control
RPMI-8226 = assay: Growth inhibition of human RPMI-8226 cells at 10 uM incubated for 48 hrs by sulforhodamine B assay relative to control
OVCAR-5 = assay: Growth inhibition of human OVCAR-5 cells at 10 uM incubated for 48 hrs by sulforhodamine B assay relative to control
NCI-H226 = assay: Growth inhibition of human NCI-H226 cells at 10 uM incubated for 48 hrs by sulforhodamine B assay relative to control
NCI-H460 = assay: Growth inhibition of human NCI-H460 cells at 10 uM incubated for 48 hrs by sulforhodamine B assay relative to control
OVCAR-4 = assay: Growth inhibition of human OVCAR-4 cells at 10 uM incubated for 48 hrs by sulforhodamine B assay relative to control
M14 = assay: Growth inhibition of human M14 cells at 10 uM incubated for 48 hrs by sulforhodamine B assay relative to control
RXF 393 = assay: Growth inhibition of human RXF 393 cells at 10 uM incubated for 48 hrs by sulforhodamine B assay relative to control
MDA-MB-435 = assay: Growth inhibition of human MDA-MB-435 cells at 10 uM incubated for 48 hrs by sulforhodamine B assay relative to control
UACC-257 = assay: Growth inhibition of human UACC-257 cells at 10 uM incubated for 48 hrs by sulforhodamine B assay relative to control
COLO 205 = assay: Growth inhibition of human COLO 205 cells at 10 uM incubated for 48 hrs by sulforhodamine B assay relative to control
HOP-92 = assay: Growth inhibition of human HOP-92 cells at 10 uM incubated for 48 hrs by sulforhodamine B assay relative to control
SNB-19 = assay: Growth inhibition of human SNB-19 cells at 10 uM incubated for 48 hrs by sulforhodamine B assay relative to control
SF-268 = assay: Growth inhibition of human SF-268 cells at 10 uM incubated for 48 hrs by sulforhodamine B assay relative to control
OVCAR-8 = assay: Growth inhibition of human OVCAR-8 cells at 10 uM incubated for 48 hrs by sulforhodamine B assay relative to control
MDA-MB-231 = assay: Growth inhibition of human MDA-MB-231 cells at 10 uM incubated for 48 hrs by sulforhodamine B assay relative to control
SN12C = assay: Growth inhibition of human SN12C cells at 10 uM incubated for 48 hrs by sulforhodamine B assay relative to control
Hs-578T = assay: Growth inhibition of human Hs-578T cells at 10 uM incubated for 48 hrs by sulforhodamine B assay relative to control
HCC 2998 = assay: Growth inhibition of human HCC 2998 cells at 10 uM incubated for 48 hrs by sulforhodamine B assay relative to control
LOX IMVI = assay: Growth inhibition of human LOX IMVI cells at 10 uM incubated for 48 hrs by sulforhodamine B assay relative to control
SR = assay: Growth inhibition of human SR cells at 10 uM incubated for 48 hrs by sulforhodamine B assay relative to control
KM12 = assay: Growth inhibition of human KM12 cells at 10 uM incubated for 48 hrs by sulforhodamine B assay relative to control
UO-31 = assay: Growth inhibition of human UO-31 cells at 10 uM incubated for 48 hrs by sulforhodamine B assay relative to control
U-251 = assay: Growth inhibition of human U-251 cells at 10 uM incubated for 48 hrs by sulforhodamine B assay relative to control
A549 = assay: Growth inhibition of human A549/ATCC cells at 10 uM incubated for 48 hrs by sulforhodamine B assay relative to control
SF-539 = assay: Growth inhibition of human SF-539 cells at 10 uM incubated for 48 hrs by sulforhodamine B assay relative to control
SF-295 = assay: Growth inhibition of human SF-295 cells at 10 uM incubated for 48 hrs by sulforhodamine B assay relative to control
SW-620 = assay: Growth inhibition of human SW-620 cells at 10 uM incubated for 48 hrs by sulforhodamine B assay relative to control
NCI-H23 = assay: Growth inhibition of human NCI-H23 cells at 10 uM incubated for 48 hrs by sulforhodamine B assay relative to control
DU-145 = assay: Growth inhibition of human DU-145 cells at 10 uM incubated for 48 hrs by sulforhodamine B assay relative to control
NCI-H322M = assay: Growth inhibition of human NCI-H322M cells at 10 uM incubated for 48 hrs by sulforhodamine B assay relative to control
NCI-H522 = assay: Growth inhibition of human NCI-H522 cells at 10 uM incubated for 48 hrs by sulforhodamine B assay relative to control
CCRF-CEM = assay: Growth inhibition of human CCRF-CEM cells at 10 uM incubated for 48 hrs by sulforhodamine B assay relative to control
HCT-15 = assay: Growth inhibition of human HCT-15 cells at 10 uM incubated for 48 hrs by sulforhodamine B assay relative to control
SK-MEL-5 = assay: Growth inhibition of human SK-MEL-5 cells at 10 uM incubated for 48 hrs by sulforhodamine B assay relative to control
SK-OV-3 = assay: Growth inhibition of human SK-OV-3 cells at 10 uM incubated for 48 hrs by sulforhodamine B assay relative to control
TK-10 = assay: Growth inhibition of human TK-10 cells at 10 uM incubated for 48 hrs by sulforhodamine B assay relative to control
MDA-MB-468 = assay: Growth inhibition of human MDA-MB-468 cells at 10 uM incubated for 48 hrs by sulforhodamine B assay relative to control
PC-3 = assay: Growth inhibition of human PC-3 cells at 10 uM incubated for 48 hrs by sulforhodamine B assay relative to control
HCT-116 = assay: Growth inhibition of human HCT-116 cells at 10 uM incubated for 48 hrs by sulforhodamine B assay relative to control
HL-60(TB) = assay: Growth inhibition of human HL-60(TB) cells at 10 uM incubated for 48 hrs by sulforhodamine B assay relative to control
UACC-62 = assay: Growth inhibition of human UACC-62 cells at 10 uM incubated for 48 hrs by sulforhodamine B assay relative to control

O=C(CN1C(=O)C(=O)c2ccccc21)Nc1ccc(-c2nc3ccccc3s2)cc1
inhibition of growth at 10 µM (ACHN): -0.81%
inhibition of growth at 10 µM (HT-29): -6.9%
inhibition of growth at 10 µM (T47D): 29.4%
inhibition of growth at 10 µM (RPMI-8226): 15%
inhibition of growth at 10 µM (OVCAR-5): -12.7%
inhibition of growth at 10 µM (NCI-H226): 9.37%
inhibition of growth at 10 µM (NCI-H460): -2.87%
inhibition of growth at 10 µM (OVCAR-4): 4.68%
inhibition of growth at 10 µM (M14): -6.04%
inhibition of growth at 10 µM (RXF 393): 4.81%
inhibition of growth at 10 µM (MDA-MB-435): -3.52%
inhibition of growth at 10 µM (UACC-257): -12.4%
inhibition of growth at 10 µM (COLO 205): 0.13%
inhibition of growth at 10 µM (HOP-92): 32.6%
inhibition of growth at 10 µM (SNB-19): 5.55%
inhibition of growth at 10 µM (SF-268): 10.9%
inhibition of growth at 10 µM (OVCAR-8): 4.11%
inhibition of growth at 10 µM (MDA-MB-231): 6.18%
inhibition of growth at 10 µM (SN12C): 4.5%
inhibition of growth at 10 µM (Hs-578T): -14.2%
inhibition of growth at 10 µM (HCC 2998): -1.9%
inhibition of growth at 10 µM (LOX IMVI): -0.17%
inhibition of growth at 10 µM (SR): 15.2%
inhibition of growth at 10 µM (KM12): 0.88%
inhibition of growth at 10 µM (UO-31): 15.5%
inhibition of growth at 10 µM (U-251): 8.34%
inhibition of growth at 10 µM (A549): 2.72%
inhibition of growth at 10 µM (SF-539): -0.12%
inhibition of growth at 10 µM (SF-295): 0.13%
inhibition of growth at 10 µM (SW-620): -0.74%
inhibition of growth at 10 µM (NCI-H23): 4.61%
inhibition of growth at 10 µM (DU-145): 2.58%
inhibition of growth at 10 µM (NCI-H322M): -0.03%
inhibition of growth at 10 µM (NCI-H522): 4.88%
inhibition of growth at 10 µM (CCRF-CEM): 21.8%
inhibition of growth at 10 µM (HCT-15): 2.95%
inhibition of growth at 10 µM (SK-MEL-5): 16.6%
inhibition of growth at 10 µM (SK-OV-3): -10.3%
inhibition of growth at 10 µM (TK-10): -13.3%
inhibition of growth at 10 µM (MDA-MB-468): 72.6%
inhibition of growth at 10 µM (PC-3): 28.6%
inhibition of growth at 10 µM (HCT-116): 9.11%
inhibition of growth at 10 µM (HL-60(TB)): 5.84%
inhibition of growth at 10 µM (UACC-62): -6.27%

O=C(CNc1nc2ccccc2s1)Nc1ccc(-c2nc3ccccc3s2)cc1
inhibition of growth at 10 µM (ACHN): -6.65%
inhibition of growth at 10 µM (HT-29): -8.9%
inhibition of growth at 10 µM (T47D): 26.1%
inhibition of growth at 10 µM (RPMI-8226): -7.46%
inhibition of growth at 10 µM (OVCAR-5): 1.6%
inhibition of growth at 10 µM (NCI-H226): 7.62%
inhibition of growth at 10 µM (NCI-H460): 0.21%
inhibition of growth at 10 µM (OVCAR-4): -1.76%
inhibition of growth at 10 µM (M14): -15.4%
inhibition of growth at 10 µM (RXF 393): -12.5%
inhibition of growth at 10 µM (MDA-MB-435): -8.66%
inhibition of growth at 10 µM (UACC-257): -1.9%
inhibition of growth at 10 µM (COLO 205): -11.7%
inhibition of growth at 10 µM (HOP-92): 0.18%
inhibition of growth at 10 µM (SNB-19): -0.11%
inhibition of growth at 10 µM (SF-268): 7.92%
inhibition of growth at 10 µM (OVCAR-8): -2.25%
inhibition of growth at 10 µM (MDA-MB-231): 0.75%
inhibition of growth at 10 µM (SN12C): -2.68%
inhibition of growth at 10 µM (Hs-578T): -0.48%
inhibition of growth at 10 µM (HCC 2998): 7.87%
inhibition of growth at 10 µM (LOX IMVI): 24.2%
inhibition of growth at 10 µM (SR): 8.72%
inhibition of growth at 10 µM (KM12): 0.84%
inhibition of growth at 10 µM (UO-31): 19.5%
inhibition of growth at 10 µM (U-251): 10.9%
inhibition of growth at 10 µM (A549): -0.04%
inhibition of growth at 10 µM (SF-539): -7.1%
inhibition of growth at 10 µM (SF-295): -7.45%
inhibition of growth at 10 µM (SW-620): -8.73%
inhibition of growth at 10 µM (NCI-H23): 11.2%
inhibition of growth at 10 µM (DU-145): -5.64%
inhibition of growth at 10 µM (NCI-H322M): 7.75%
inhibition of growth at 10 µM (NCI-H522): 8.76%
inhibition of growth at 10 µM (CCRF-CEM): -10.5%
inhibition of growth at 10 µM (HCT-15): -4.63%
inhibition of growth at 10 µM (SK-MEL-5): -2.93%
inhibition of growth at 10 µM (SK-OV-3): -7.21%
inhibition of growth at 10 µM (TK-10): 3.3%
inhibition of growth at 10 µM (MDA-MB-468): 118%
inhibition of growth at 10 µM (PC-3): 4.99%
inhibition of growth at 10 µM (HCT-116): 1.08%
inhibition of growth at 10 µM (HL-60(TB)): 0.87%
inhibition of growth at 10 µM (UACC-62): 5.38%
